Experimental data reported in ChEMBL document CHEMBL1158401, “Development of CoMFA and CoMSIA models of affinity and selectivity for indole ligands of cannabinoid CB1 and CB2 receptors” (Eur J Med Chem, 2009).
pKi: −log10 of the molar value.

What was measured:
[1] = Selectivity ratio of pKi for CB1 receptor in rat brain to pKi for human cloned CB2 receptor; assay type: tissue-based
Cannabinoid receptor 2 = Cannabinoid receptor 2 (Homo sapiens, UniProt P34972); assay: Displacement of [3H]CP-55940 from human cloned CB2 receptor by filtration assay
Cannabinoid receptor 1 = Cannabinoid receptor 1 (Rattus norvegicus, UniProt P20272); assay: Displacement of [3H]CP-55940 from CB1 receptor in rat brain by filtration assay; assay type: tissue-based
[2] = Selectivity ratio of pKi for human cloned CB2 receptor to pKi for CB1 receptor in rat brain; assay type: tissue-based

Cannabinoid receptor 2, sequence (P34972 whole entry): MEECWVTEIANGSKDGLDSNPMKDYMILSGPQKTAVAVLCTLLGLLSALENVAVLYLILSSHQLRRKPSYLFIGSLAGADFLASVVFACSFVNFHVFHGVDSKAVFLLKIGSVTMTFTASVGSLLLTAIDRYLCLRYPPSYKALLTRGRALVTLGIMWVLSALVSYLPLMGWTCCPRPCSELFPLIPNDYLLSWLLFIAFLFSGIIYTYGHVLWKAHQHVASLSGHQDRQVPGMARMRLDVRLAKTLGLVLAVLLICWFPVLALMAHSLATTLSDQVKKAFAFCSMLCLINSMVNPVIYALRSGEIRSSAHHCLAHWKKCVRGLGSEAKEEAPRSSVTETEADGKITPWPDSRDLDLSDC
Cannabinoid receptor 1, sequence (P20272 whole entry): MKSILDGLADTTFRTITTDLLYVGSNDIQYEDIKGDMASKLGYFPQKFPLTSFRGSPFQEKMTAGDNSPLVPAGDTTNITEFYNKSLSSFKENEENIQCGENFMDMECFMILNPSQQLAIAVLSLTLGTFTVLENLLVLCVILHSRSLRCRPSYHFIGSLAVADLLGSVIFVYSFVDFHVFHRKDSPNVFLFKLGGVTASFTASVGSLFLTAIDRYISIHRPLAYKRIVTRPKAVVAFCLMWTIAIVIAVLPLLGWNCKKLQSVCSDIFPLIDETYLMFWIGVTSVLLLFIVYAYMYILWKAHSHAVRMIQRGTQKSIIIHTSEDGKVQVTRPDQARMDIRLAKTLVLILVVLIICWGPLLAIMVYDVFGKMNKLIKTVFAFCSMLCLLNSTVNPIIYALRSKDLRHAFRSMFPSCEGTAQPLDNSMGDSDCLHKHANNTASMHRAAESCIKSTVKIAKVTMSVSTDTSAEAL

## CCCCCn1c(C)c(C(=O)c2cccc3ccc(C)cc23)c2ccccc21
[1]
  Ratio pKi: 0.856
Cannabinoid receptor 2
  pKi: 9.31
Cannabinoid receptor 1
  pKi: 7.97
[2]
  Ratio pKi: 1.17

## CCCn1cc(C(=O)c2ccc(OCC)c3ccccc23)c2ccccc21
[1]
  Ratio pKi: 0.934
[2]
  Ratio pKi: 1.07

## CCCCCn1c(C)c(C(=O)c2ccc(C)c3ccccc23)c2ccccc21
[1]
  Ratio pKi: 0.909
Cannabinoid receptor 1
  pKi: 8.30
[2]
  Ratio pKi: 1.1

## CCCn1cc(C(=O)c2c(OC)ccc3ccccc23)c2ccccc21
[1]
  Ratio pKi: 0.764
[2]
  Ratio pKi: 1.31

## CCCn1cc(C(=O)c2ccc(OC)c3ccccc23)c2ccccc21
[1]
  Ratio pKi: 0.961
Cannabinoid receptor 2
  pKi: 7.50
Cannabinoid receptor 1
  pKi: 7.20
[2]
  Ratio pKi: 1.04

## CCCCCn1c(C)c(C(=O)c2ccc(OC)c3ccccc23)c2ccccc21
[1]
  Ratio pKi: 0.957
Cannabinoid receptor 2
  pKi: 8.72
Cannabinoid receptor 1
  pKi: 8.35
[2]
  Ratio pKi: 1.04

## CCCCCn1cc(C(=O)Cc2cccc(Cl)c2)c2ccccc21
[1]
  Ratio pKi: 1.06
[2]
  Ratio pKi: 0.939

## CCCCCn1cc(C(=O)Cc2ccccc2F)c2ccccc21
[1]
  Ratio pKi: 1.03
[2]
  Ratio pKi: 0.969

## CCCCCn1c(C)c(C(=O)Cc2ccccc2C)c2ccccc21
[1]
  Ratio pKi: 0.989
[2]
  Ratio pKi: 1.01

## CCCn1c(C)c(C(=O)c2cccc3ccc(C)cc23)c2ccccc21
[1]
  Ratio pKi: 0.829
Cannabinoid receptor 2
  pKi: 7.80
Cannabinoid receptor 1
  pKi: 6.46
[2]
  Ratio pKi: 1.21

## CCCCCn1c(C)c(C(=O)c2c(OC)ccc3ccccc23)c2ccccc21
[1]
  Ratio pKi: 0.792
[2]
  Ratio pKi: 1.26

## CCCCCn1cc(C(=O)Cc2ccccc2OC)c2ccccc21
[1]
  Ratio pKi: 1.06
[2]
  Ratio pKi: 0.94

## CCCCCn1cc(C(=O)c2cccc3cc(OC)ccc23)c2ccccc21
[1]
  Ratio pKi: 0.843
[2]
  Ratio pKi: 1.19

## CCCCCn1c(C)c(C(=O)Cc2ccccc2OC)c2ccccc21
[1]
  Ratio pKi: 1.07
[2]
  Ratio pKi: 0.932

## CCCCCn1cc(C(=O)c2ccc(OC)c3ccccc23)c2ccccc21
[1]
  Ratio pKi: 1.13
Cannabinoid receptor 2
  pKi: 7.91
Cannabinoid receptor 1
  pKi: 8.92
[2]
  Ratio pKi: 0.886

## CCCCCn1cc(C(=O)c2cccc3ccccc23)c2ccccc21
[1]
  Ratio pKi: 0.942
Cannabinoid receptor 2
  pKi: 8.54
Cannabinoid receptor 1
  pKi: 8.04
[2]
  Ratio pKi: 1.06

## CCCn1c(C)c(C(=O)c2cccc3ccc(OC)cc23)c2ccccc21
[1]
  Ratio pKi: 0.913
[2]
  Ratio pKi: 1.09

## CCCCCn1c(C)c(C(=O)c2ccc(CCC)c3ccccc23)c2ccccc21
[1]
  Ratio pKi: 0.965
[2]
  Ratio pKi: 1.04

## CCCCCn1c(C)c(C(=O)Cc2cccc(Cl)c2)c2ccccc21
[1]
  Ratio pKi: 1.01
[2]
  Ratio pKi: 0.989

## CCCc1ccc(C(=O)c2c(C)n(CCC)c3ccccc23)c2ccccc12
[1]
  Ratio pKi: 0.919
[2]
  Ratio pKi: 1.09

## CCCCCn1cc(C(=O)c2ccc(OCC)c3ccccc23)c2ccccc21
[1]
  Ratio pKi: 1.04
[2]
  Ratio pKi: 0.957

## CCCn1cc(C(=O)c2cccc3ccc(OC)cc23)c2ccccc21
[1]
  Ratio pKi: 0.936
[2]
  Ratio pKi: 1.07

## CCCCc1ccc(C(=O)c2cn(CCC)c3ccccc23)c2ccccc12
[1]
  Ratio pKi: 0.888
[2]
  Ratio pKi: 1.13

## CCCn1cc(C(=O)c2cccc3ccccc23)c2ccccc21
[1]
  Ratio pKi: 0.883
Cannabinoid receptor 2
  pKi: 6.77
Cannabinoid receptor 1
  pKi: 5.98
[2]
  Ratio pKi: 1.13

## CCCn1c(C)c(C(=O)c2ccc(OCC)c3ccccc23)c2ccccc21
[1]
  Ratio pKi: 0.919
[2]
  Ratio pKi: 1.09

## CCCn1cc(C(=O)c2cccc3ccc(CC)cc23)c2ccccc21
[1]
  Ratio pKi: 0.936
[2]
  Ratio pKi: 1.07

## CCCCCn1c(C)c(C(=O)Cc2cccc(F)c2)c2ccccc21
[1]
  Ratio pKi: 0.945
[2]
  Ratio pKi: 1.06

## CCCCCn1cc(C(=O)c2ccc(CCCC)c3ccccc23)c2ccccc21
[1]
  Ratio pKi: 0.964
[2]
  Ratio pKi: 1.04

## CCCCCn1cc(C(=O)Cc2ccc(C)cc2)c2ccccc21
[1]
  Ratio pKi: 1.08
[2]
  Ratio pKi: 0.925

## CCCCCn1c(C)c(C(=O)Cc2ccc(OC)cc2)c2ccccc21
[1]
  Ratio pKi: 0.933
[2]
  Ratio pKi: 1.07

## CCCCCn1cc(C(=O)Cc2ccc(Br)cc2)c2ccccc21
[1]
  Ratio pKi: 0.969

## CCCCCn1c(C)c(C(=O)c2cccc3cc(OC)ccc23)c2ccccc21
[1]
  Ratio pKi: 0.83
[2]
  Ratio pKi: 1.21

## CCCCCn1cc(C(=O)c2cccc3ccc(CC)cc23)c2ccccc21
[1]
  Ratio pKi: 0.959
[2]
  Ratio pKi: 1.04

## CCCn1cc(C(=O)c2ccc(C)c3ccccc23)c2ccccc21
[1]
  Ratio pKi: 0.728
[2]
  Ratio pKi: 1.37

## CCCn1c(C)c(C(=O)c2ccc(OC)c3ccccc23)c2ccccc21
[1]
  Ratio pKi: 0.901
Cannabinoid receptor 2
  pKi: 7.01
Cannabinoid receptor 1
  pKi: 6.32
[2]
  Ratio pKi: 1.11

## CCCCCn1c(C)c(C(=O)Cc2ccccc2Br)c2ccccc21
[1]
  Ratio pKi: 1.04
[2]
  Ratio pKi: 0.963

## CCCCCn1c(C)c(C(=O)c2cccc3ccc(OC)cc23)c2ccccc21
[1]
  Ratio pKi: 0.92
[2]
  Ratio pKi: 1.09

## CCCCCn1c(C)c(C(=O)Cc2ccccc2Cl)c2ccccc21
[1]
  Ratio pKi: 1.04
[2]
  Ratio pKi: 0.963

## CCCCCn1cc(C(=O)Cc2ccccc2C)c2ccccc21
[1]
  Ratio pKi: 1.1
[2]
  Ratio pKi: 0.906

## CCCCCn1cc(C(=O)c2c(OC)ccc3ccccc23)c2ccccc21
[1]
  Ratio pKi: 0.788
[2]
  Ratio pKi: 1.27

## CCCCCn1c(C)c(C(=O)Cc2ccccc2F)c2ccccc21
[1]
  Ratio pKi: 1.04
[2]
  Ratio pKi: 0.96

## CCCn1c(C)c(C(=O)c2cccc3ccc(CC)cc23)c2ccccc21
[1]
  Ratio pKi: 0.887
[2]
  Ratio pKi: 1.13

## CCCn1c(C)c(C(=O)c2ccc(CC)c3ccccc23)c2ccccc21
[1]
  Ratio pKi: 0.903
[2]
  Ratio pKi: 1.11

## CCCn1cc(C(=O)c2ccc(CC)c3ccccc23)c2ccccc21
[1]
  Ratio pKi: 0.935
[2]
  Ratio pKi: 1.07

## CCCCCn1c(C)c(C(=O)c2ccc(CCCC)c3ccccc23)c2ccccc21
[1]
  Ratio pKi: 0.901
[2]
  Ratio pKi: 1.11

## CCCCCn1cc(C(=O)Cc2ccccc2Cl)c2ccccc21
[1]
  Ratio pKi: 0.993
[2]
  Ratio pKi: 1.01

## CCCCCn1c(C)c(C(=O)c2cccc3ccccc23)c2ccccc21
[1]
  Ratio pKi: 0.94
Cannabinoid receptor 2
  pKi: 8.54
Cannabinoid receptor 1
  pKi: 8.02
[2]
  Ratio pKi: 1.06

## CCCCCn1c(C)c(C(=O)c2ccc(CC)c3ccccc23)c2ccccc21
[1]
  Ratio pKi: 0.941
[2]
  Ratio pKi: 1.06

## CCCCCn1cc(C(=O)c2ccc(CC)c3ccccc23)c2ccccc21
[1]
  Ratio pKi: 1.02
[2]
  Ratio pKi: 0.981

## CCCCCn1c(C)c(C(=O)Cc2ccccc2)c2ccccc21
[1]
  Ratio pKi: 1.02
[2]
  Ratio pKi: 0.976

## CCCCCn1cc(C(=O)c2cccc3ccc(OC)cc23)c2ccccc21
[1]
  Ratio pKi: 1
[2]
  Ratio pKi: 0.997

## CCCn1c(C)c(C(=O)c2ccc(C)c3ccccc23)c2ccccc21
[1]
  Ratio pKi: 0.88
[2]
  Ratio pKi: 1.14

## CCCc1ccc(C(=O)c2cn(CCC)c3ccccc23)c2ccccc12
[1]
  Ratio pKi: 0.946
[2]
  Ratio pKi: 1.06

## CCCCCn1cc(C(=O)c2ccc(CCC)c3ccccc23)c2ccccc21
[1]
  Ratio pKi: 1.02
[2]
  Ratio pKi: 0.975

## CCCCCn1cc(C(=O)Cc2ccc(F)cc2)c2ccccc21
[1]
  Ratio pKi: 0.99
[2]
  Ratio pKi: 1.01

## CCCCCn1cc(C(=O)c2ccc(C)c3ccccc23)c2ccccc21
[1]
  Ratio pKi: 1.03
Cannabinoid receptor 1
  pKi: 9.16
[2]
  Ratio pKi: 0.973

## CCCCCn1cc(C(=O)Cc2ccc(OC)cc2)c2ccccc21
[1]
  Ratio pKi: 0.94
[2]
  Ratio pKi: 1.06

## CCCCCn1c(C)c(C(=O)c2ccc(OCC)c3ccccc23)c2ccccc21
[1]
  Ratio pKi: 0.991
[2]
  Ratio pKi: 1.01

## CCCn1cc(C(=O)c2cccc3cc(OC)ccc23)c2ccccc21
[1]
  Ratio pKi: 0.82
[2]
  Ratio pKi: 1.22

## CCCCCn1cc(C(=O)Cc2cccc(F)c2)c2ccccc21
[1]
  Ratio pKi: 1.01
[2]
  Ratio pKi: 0.985

## CCCCCn1c(C)c(C(=O)Cc2ccc(C)cc2)c2ccccc21
[1]
  Ratio pKi: 1.04
[2]
  Ratio pKi: 0.957

## CCCCCn1cc(C(=O)Cc2ccccc2)c2ccccc21
[1]
  Ratio pKi: 1.04
[2]
  Ratio pKi: 0.964

## CCCCc1ccc(C(=O)c2c(C)n(CCC)c3ccccc23)c2ccccc12
[1]
  Ratio pKi: 0.935
[2]
  Ratio pKi: 1.07

## CCCn1cc(C(=O)c2cccc3ccc(C)cc23)c2ccccc21
[1]
  Ratio pKi: 0.956
[2]
  Ratio pKi: 1.04

## CCCCCn1c(C)c(C(=O)Cc2cccc(OC)c2)c2ccccc21
[1]
  Ratio pKi: 1.02
[2]
  Ratio pKi: 0.981

## CCCCCn1c(C)c(C(=O)c2cccc3ccc(CC)cc23)c2ccccc21
[1]
  Ratio pKi: 0.915
[2]
  Ratio pKi: 1.09

## CCCCCn1cc(C(=O)Cc2ccccc2Br)c2ccccc21
[1]
  Ratio pKi: 1.05
[2]
  Ratio pKi: 0.953

## CCCCCn1c(C)c(C(=O)Cc2ccc(Cl)cc2)c2ccccc21
[1]
  Ratio pKi: 1.07
[2]
  Ratio pKi: 0.936

## CCCCCn1cc(C(=O)Cc2ccc(Cl)cc2)c2ccccc21
[1]
  Ratio pKi: 1.02
[2]
  Ratio pKi: 0.983

## CCCCCn1cc(C(=O)Cc2cccc(OC)c2)c2ccccc21
[1]
  Ratio pKi: 1.1
[2]
  Ratio pKi: 0.907
